# Assay results: patent US20240174634A1, “Aldehyde Dehydrogenase Inhibitors and Their Therapeutic Use” (priority 2020, published 2024)
# Molecular target: T1, ALDH1A1 (Homo sapiens, UniProt P00352)
# T1 construct: His-tag; made in house; host or cells: E. coli Rosetta (DE3)
# T1 sequence (P00352 1-501): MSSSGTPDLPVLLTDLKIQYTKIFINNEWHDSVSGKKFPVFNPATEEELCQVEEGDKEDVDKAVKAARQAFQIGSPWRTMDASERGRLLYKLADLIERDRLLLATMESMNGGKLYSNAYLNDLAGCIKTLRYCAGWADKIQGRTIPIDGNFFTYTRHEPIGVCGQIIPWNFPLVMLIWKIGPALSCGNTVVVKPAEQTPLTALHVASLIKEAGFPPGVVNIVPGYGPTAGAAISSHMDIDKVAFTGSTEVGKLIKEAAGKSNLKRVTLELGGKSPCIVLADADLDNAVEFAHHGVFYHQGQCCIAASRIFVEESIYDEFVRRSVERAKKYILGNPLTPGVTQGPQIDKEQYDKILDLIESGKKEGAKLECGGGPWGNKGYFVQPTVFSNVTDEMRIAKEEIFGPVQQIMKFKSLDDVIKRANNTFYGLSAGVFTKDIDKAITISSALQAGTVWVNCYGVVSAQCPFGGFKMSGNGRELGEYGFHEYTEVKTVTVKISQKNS
# Experiment: Selectivity biochemical assay, NAD(P)H-Glo Detection System
# Method in brief: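 Recombinant full-length His-tagged human enzymes expressed in E. coli were pre-incubated 30 min at room temperature with compound (10-point, 3-fold series; top 20 μM for ALDH1A3, 250 μM for ALDH1A1/1A2). Propionaldehyde and NAD were then added at Km; NADH was read by NAD(P)H-Glo luminescence. Buffer: Tris (pH 7.6 for 1A1/1A2, 9.0 for 1A3), 1 mM TCEP, 0.01% Tween-20.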
row,SMILES,IC50 [µM]
1,"O=C1CCc2cc(OCCN3CC(F)(F)CC3c3cccc(F)c3)ccc2N1 (stereo not drawn) [ALDHI-2053, 6-[2-[4,4-difluoro-2-(3-fluorophenyl)pyrrolidin-1-yl]ethoxy]-3,4-dihydro-1H-quinolin-2-one]",≥ 100
2,"O=C1CCc2cc(OCCN3CC(O)CC3c3cccc(F)c3)ccc2N1 (mixture of isomers) [ALDHI-2035, 6-[2-[2-(3-fluorophenyl)-4-hydroxy-pyrrolidin-1-yl]ethoxy]-3,4-dihydro-1H-quinolin-2-one]",10 to 100
3,"O=C1CSc2cc(OCCN3CCCC3c3cccc(F)c3)ccc2N1 (stereo not drawn) [ALDHI-2008, 7-[2-[2-(3-fluorophenyl)pyrrolidin-1-yl]ethoxy]-4H-1,4-benzothiazin-3-one]",≥ 100
